Counter-ions that a name gives are not always drawn. Like-named read-outs stand apart in the source and are kept apart here.
What was measured:
Human TYK2 = molecular target: T1, Human TYK2 (Homo sapiens, UniProt P29597); assay: In-vitro kinase inhibition test, TYK2; type: biochemical; conditions: read-out: TYK2 kinase-phosphorylation inhibitory level (% inhibition)
T1 construct: purchased Millipore, Germany
Method: (§1) Human-derived JAK1, JAK2, JAK3 and TYK2 (Millipore, Germany) were used as kinases. Each kinase was diluted with an appropriate buffer as described below, and then mixed with reaction reagents.
(§2) 3-morpholinopropane-1-sulfonic acid (MOPS) and EDTA were dissolved in deionized water at a concentration of 20 mM and 1 mM, respectively, and then 100 μL of β-mercaptoethanol, 10 μL of Brij-35™, 5 mL of glycerol, and 100 mg of bovine serum albumin (BSA), each per 100 mL of the solution, were added to the solution, thereby preparing a dilution buffer for JAK2, JAK3, and TYK2.
(§3) Each compound was dissolved in a 100%-DMSO solution at a concentration of about 50 μM. This prepared solution was reacted with reaction reagents in each well of a 96-well plate until a final concentration of the compound reached 1 μM. A detailed experimental method for each kinase is as follows.
(§4) After reaction for about 40 minutes at room temperature, the reaction was stopped by adding 5 uL of a 3% (v/v) phosphoric acid solution.
(§5) The inhibitory levels (% inhibition) represent a percentage of reduction in phosphorylation activity in each test group with respect to the phosphorylation activity of a corresponding kinase in a negative control group lacking any of the compounds synthesized in the examples. % inhibition=[(Scintillation value of Test compound non-treatment group−Scintillation value of Test compound treatment group)/(Scintillation value of Test compound non-treatment group)]×100

Human JAK3 = molecular target: T2, Human JAK3 (Homo sapiens, UniProt P52333); assay: In-vitro kinase inhibition test, JAK3; type: biochemical; conditions: compound at 1 uM; read-out: JAK3 kinase-phosphorylation inhibitory level (% inhibition)
T2 construct: purchased Millipore, Germany
T2 sequence (P52333 1-1124): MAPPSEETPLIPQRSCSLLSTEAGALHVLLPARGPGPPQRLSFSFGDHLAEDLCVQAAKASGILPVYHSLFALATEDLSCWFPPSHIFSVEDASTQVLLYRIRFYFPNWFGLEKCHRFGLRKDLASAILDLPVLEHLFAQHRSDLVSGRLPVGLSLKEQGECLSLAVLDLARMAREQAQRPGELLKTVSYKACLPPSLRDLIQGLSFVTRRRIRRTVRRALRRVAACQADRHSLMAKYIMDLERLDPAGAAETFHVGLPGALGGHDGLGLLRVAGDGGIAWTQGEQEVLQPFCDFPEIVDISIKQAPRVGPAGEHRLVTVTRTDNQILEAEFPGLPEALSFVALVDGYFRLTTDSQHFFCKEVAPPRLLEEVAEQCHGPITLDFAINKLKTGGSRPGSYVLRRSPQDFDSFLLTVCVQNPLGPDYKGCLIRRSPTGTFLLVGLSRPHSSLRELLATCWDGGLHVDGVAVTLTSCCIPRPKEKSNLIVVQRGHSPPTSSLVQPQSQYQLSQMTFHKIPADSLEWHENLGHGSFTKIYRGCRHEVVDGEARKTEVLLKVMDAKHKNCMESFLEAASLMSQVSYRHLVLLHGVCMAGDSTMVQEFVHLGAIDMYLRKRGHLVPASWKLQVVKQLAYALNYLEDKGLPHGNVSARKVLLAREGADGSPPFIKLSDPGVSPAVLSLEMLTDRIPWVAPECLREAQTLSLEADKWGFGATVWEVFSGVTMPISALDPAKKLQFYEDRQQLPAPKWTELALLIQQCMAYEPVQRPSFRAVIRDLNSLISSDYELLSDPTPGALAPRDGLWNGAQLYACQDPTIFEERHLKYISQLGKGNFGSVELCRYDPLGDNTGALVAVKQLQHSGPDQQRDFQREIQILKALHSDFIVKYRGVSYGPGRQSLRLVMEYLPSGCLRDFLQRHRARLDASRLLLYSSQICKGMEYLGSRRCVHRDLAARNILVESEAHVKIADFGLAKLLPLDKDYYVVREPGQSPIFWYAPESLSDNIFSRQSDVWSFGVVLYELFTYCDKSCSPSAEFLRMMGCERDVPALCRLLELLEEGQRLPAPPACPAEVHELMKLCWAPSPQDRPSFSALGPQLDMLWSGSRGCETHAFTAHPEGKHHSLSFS

Human JAK1 = molecular target: T3, Human JAK1 (Homo sapiens, UniProt P23458); assay: In-vitro kinase inhibition test, JAK1; type: biochemical; conditions: for inhibition at 1 µM: compound at 1 uM, read-out: JAK1 kinase-phosphorylation inhibitory level (% inhibition); for JAK1/JAK2: ratio of % inhibition of JAK1 to JAK2 at 1 uM
T3 construct: purchased Millipore, Germany

Human JAK2 = molecular target: T4, Human JAK2 (Homo sapiens, UniProt O60674); assay: In-vitro kinase inhibition test, JAK2; type: biochemical; conditions: compound at 1 uM; read-out: JAK2 kinase-phosphorylation inhibitory level (% inhibition)
T4 construct: purchased Millipore, Germany
Method: as §1, §2, §3, §4, §5

[1] = Pharmacokinetic test, oral or intravenous administration; type: in vivo; conditions: mouse, blood, 20 mg/kg, mice
Method: A dose of the compound was about 20 mg/kg, which was orally or intraveneously administered one time, followed by blood collection from the jugular veins of three mice at each of blood sampling intervals, i.e., 0, 0.25 (15 min), 0.5 (30 min), 1, 2, 4, 6, 12, and 24 hours from the administration, and measuring a drug concentration.

[2] = comparative drug (EMA), cited from earlier work

T3 sequence (P23458 whole entry): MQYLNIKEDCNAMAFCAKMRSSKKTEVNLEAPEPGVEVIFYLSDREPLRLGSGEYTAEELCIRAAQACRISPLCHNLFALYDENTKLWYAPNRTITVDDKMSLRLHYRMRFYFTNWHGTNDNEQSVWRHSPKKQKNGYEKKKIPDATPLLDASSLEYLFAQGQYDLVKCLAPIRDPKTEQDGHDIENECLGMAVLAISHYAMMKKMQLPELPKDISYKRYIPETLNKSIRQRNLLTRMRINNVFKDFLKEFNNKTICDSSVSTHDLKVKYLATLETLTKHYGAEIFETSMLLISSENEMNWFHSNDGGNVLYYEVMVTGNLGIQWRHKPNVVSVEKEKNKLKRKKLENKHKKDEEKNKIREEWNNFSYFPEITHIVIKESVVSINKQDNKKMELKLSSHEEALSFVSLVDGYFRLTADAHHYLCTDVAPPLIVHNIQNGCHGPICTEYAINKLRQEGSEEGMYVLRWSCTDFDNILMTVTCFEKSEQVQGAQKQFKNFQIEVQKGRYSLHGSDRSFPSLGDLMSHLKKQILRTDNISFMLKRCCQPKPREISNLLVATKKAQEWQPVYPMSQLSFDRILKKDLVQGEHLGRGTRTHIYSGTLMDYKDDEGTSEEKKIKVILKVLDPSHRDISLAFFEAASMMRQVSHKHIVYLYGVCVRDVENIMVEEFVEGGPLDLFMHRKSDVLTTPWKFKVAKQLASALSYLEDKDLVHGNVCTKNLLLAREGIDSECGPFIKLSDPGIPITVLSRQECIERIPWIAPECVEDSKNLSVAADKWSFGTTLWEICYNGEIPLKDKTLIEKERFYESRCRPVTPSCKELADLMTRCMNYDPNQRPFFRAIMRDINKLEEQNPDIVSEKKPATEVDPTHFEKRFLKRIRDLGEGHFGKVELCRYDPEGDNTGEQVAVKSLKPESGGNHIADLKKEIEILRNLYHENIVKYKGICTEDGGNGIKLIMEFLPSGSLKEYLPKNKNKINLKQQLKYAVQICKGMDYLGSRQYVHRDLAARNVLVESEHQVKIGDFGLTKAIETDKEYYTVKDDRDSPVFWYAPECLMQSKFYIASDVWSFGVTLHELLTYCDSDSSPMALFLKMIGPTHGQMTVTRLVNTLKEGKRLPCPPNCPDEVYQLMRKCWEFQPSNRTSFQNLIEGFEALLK
T1 sequence (P29597 whole entry): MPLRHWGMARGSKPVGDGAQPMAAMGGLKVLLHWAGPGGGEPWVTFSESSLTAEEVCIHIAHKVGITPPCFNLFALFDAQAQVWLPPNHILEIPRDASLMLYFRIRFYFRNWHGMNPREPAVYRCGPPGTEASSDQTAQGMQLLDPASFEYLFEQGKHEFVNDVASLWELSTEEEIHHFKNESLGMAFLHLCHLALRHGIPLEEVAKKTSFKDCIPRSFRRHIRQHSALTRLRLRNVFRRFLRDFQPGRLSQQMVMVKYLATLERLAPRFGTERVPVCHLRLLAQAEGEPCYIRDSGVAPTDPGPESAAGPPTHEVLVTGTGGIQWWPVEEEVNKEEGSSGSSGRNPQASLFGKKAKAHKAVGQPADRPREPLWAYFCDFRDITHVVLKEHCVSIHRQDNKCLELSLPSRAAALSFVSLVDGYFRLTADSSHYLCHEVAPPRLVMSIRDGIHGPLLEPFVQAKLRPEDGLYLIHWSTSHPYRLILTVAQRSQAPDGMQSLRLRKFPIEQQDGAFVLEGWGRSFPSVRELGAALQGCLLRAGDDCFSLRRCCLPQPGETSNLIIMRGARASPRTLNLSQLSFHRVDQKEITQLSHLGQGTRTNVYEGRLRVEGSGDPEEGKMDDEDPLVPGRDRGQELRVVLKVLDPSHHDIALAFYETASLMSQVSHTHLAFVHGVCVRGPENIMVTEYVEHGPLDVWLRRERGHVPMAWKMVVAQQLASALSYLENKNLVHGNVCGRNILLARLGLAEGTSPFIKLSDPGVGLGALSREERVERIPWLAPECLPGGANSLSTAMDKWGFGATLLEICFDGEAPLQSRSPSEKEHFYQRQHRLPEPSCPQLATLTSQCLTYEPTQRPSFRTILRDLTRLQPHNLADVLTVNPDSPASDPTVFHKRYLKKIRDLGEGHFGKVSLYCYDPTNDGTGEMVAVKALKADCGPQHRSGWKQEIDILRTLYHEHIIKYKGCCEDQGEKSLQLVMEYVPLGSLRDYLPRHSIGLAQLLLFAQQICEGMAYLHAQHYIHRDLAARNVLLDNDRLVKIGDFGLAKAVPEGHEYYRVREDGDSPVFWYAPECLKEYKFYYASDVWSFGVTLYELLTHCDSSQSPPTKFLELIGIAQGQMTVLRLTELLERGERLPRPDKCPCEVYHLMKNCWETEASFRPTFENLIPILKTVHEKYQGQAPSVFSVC
T4 sequence (O60674 whole entry): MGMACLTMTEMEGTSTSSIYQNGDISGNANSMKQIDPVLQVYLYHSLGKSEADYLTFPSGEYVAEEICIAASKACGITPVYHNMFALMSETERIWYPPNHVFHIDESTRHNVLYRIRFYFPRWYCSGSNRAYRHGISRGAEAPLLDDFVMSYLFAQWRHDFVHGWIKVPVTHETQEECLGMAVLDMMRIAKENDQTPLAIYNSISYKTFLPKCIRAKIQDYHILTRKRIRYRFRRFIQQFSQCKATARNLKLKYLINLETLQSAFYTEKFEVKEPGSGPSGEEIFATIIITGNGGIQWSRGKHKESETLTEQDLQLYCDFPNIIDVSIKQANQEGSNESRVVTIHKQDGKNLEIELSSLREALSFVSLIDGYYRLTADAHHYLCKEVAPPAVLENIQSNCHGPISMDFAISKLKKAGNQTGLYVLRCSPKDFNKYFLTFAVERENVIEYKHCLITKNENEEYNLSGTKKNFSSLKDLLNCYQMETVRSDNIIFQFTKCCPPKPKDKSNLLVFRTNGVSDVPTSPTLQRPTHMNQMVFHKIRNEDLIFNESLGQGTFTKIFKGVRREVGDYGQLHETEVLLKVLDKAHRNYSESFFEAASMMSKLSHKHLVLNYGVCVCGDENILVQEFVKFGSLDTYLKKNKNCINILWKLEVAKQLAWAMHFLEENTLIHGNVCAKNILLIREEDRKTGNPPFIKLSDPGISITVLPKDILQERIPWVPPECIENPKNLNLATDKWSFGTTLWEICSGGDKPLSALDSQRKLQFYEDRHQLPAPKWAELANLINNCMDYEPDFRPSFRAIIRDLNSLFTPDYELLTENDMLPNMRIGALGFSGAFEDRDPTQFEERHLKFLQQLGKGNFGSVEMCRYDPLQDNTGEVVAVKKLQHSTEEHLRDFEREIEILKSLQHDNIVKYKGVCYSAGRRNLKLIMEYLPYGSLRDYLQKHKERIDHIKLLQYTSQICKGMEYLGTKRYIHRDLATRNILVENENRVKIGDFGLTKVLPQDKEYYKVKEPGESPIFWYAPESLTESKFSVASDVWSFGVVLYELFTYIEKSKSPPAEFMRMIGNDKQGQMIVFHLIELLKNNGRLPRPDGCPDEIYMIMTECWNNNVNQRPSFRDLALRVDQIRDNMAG

Row | inhibition at 1 µM (Human TYK2; compound at 1 uM) | inhibition at 1 µM (Human JAK3) | inhibition at 1 µM (Human JAK1) | JAK1/JAK2 (Human JAK1) | inhibition at 1 µM (Human JAK2) | SMILES | also measured
1 | 86% | 89% | 95% | 1.20 | 79% | C[C@@H]1CCN(S(=O)(=O)c2cccc(C#N)c2)C[C@@H]1N(C)c1ncnc2[nH]ccc12 [Example 42, 3-(((3R,4R)-4-methyl-3-(methyl(7H-pyrrolo[2,3-d]pyrimidine-4-yl)amino)piperidine-1-yl)sulfonyl)benzonitrile] | –
2 | 38% | 36% | 86% | 4.53 | 19% | CN(c1ncnc2[nH]ccc12)[C@H]1CN(C(=O)CC#N)CC1(C)C [Example 43, (R)-3-(3,3-dimethyl-4-(methyl(7H-pyrrolo[2,3-d]pyrimidine-4-yl)amino)pyrrolidine-1-yl)-3-oxopropanenitrile] | –
3 | -1% | 1% | 26% | ∞ | -8% | CN(c1ncnc2[nH]ccc12)[C@@H]1CN(C(=O)CC#N)CC1(C)C [Example 44, (S)-3-(3,3-dimethyl-4-(methyl(7H-pyrrolo[2,3-d]pyrimidine-4-yl)amino)pyrrolidine-1-yl)-3-oxopropanenitrile] | –
4 | 10% | 14% | 35% | 7.00 | 5% | N#CCC(=O)N1CCC(Oc2ncnc3[nH]ccc23)CC1 [Example 45, 3-(4-((7H-pyrrolo[2,3-d]pyrimidine-4-yl)oxy)piperidine-1-yl)-3-oxopropanenitrile] | –
5 | 20% | 16% | 30% | 3.00 | 10% | N#CCC(=O)N1CCCC(COc2ncnc3[nH]ccc23)C1 (stereo not shown) [Example 47, 3-(3-(((7H-pyrrolo[2,3-d]pyrimidine-4-yl)oxy)methyl)piperidine-1-yl)-3-oxopropanenitrile] | –
6 | 7% | 19% | 25% | 1.47 | 17% | N#Cc1cccc(S(=O)(=O)N2CCCC(COc3ncnc4[nH]ccc34)C2)c1 (stereo not shown) [Example 48, 3-((3-(((7H-pyrrolo[2,3-d]pyrimidine-4-yl)oxy)methyl)piperidine-1-yl)sulfonyl)benzonitrile] | –
7 | 21% | 1% | 54% | ∞ | -7% | N#CCC(=O)N1C[C@H]2CCCN(c3ncnc4[nH]ccc34)[C@H]2C1 [Example 49, 3-((4aR,7aR)-1-(7H-pyrrolo[2,3-d]pyrimidine-4-yl)octahydro-6H-pyrrolo[3,4-b]pyridine-6-yl)-3-oxopropanenitrile] | –
8 | 6% | 1% | 14% | ∞ | -10% | N#CCC(=O)N1C[C@@H]2CCCN(c3ncnc4[nH]ccc34)[C@@H]2C1 [Example 50, 3-((4aS,7aS)-1-(7H-pyrrolo[2,3-d]pyrimidine-4-yl)octahydro-6H-pyrrolo[3,4-b]pyridine-6-yl)-3-oxopropanenitrile] | –
9 | – | – | – | – | – | CN(c1ncnc2[nH]ccc12)[C@@H]1CCN(C(=O)CC#N)C1.Cl [Example 51, (R)-3-(3-(methyl(7H-pyrrolo[2,3-d]pyrimidine-4-yl)amino)pyrrolidine-1-yl)-3-oxopropanenitrile hydrochloride] | AUC(0-t) ([1]; intravenous injection): 18900 ng·h/mL; Cmax ([1]; intravenous injection): 15500 ng/mL; half-life ([1]; intravenous injection): 118 min; AUC(0-t) ([1]; oral administration): 13100 ng·h/mL; Cmax ([1]; oral administration): 4530 ng/mL; Tmax ([1]; oral administration): 30 min; bioavailability ([1]; oral administration): 69.1%; half-life ([1]; oral administration): 167 min
10 | – | – | – | – | – | CC1CCN(C(=O)CC#N)CC1N(C)c1ncnc2[nH]ccc12 (stereo not shown) [tofacitinib citrate, 3-{4-methyl-3-[methyl-(7H-pyrrolo[2,3-d]pyrimidine-4-yl)-amino]-piperidine-1-yl}-3-oxo-propionitrile] | inhibition at 1 µM (Human TYK2): 100%; AUC0→t ([2]; intravenous injection, 5 mg/kg): 3180 ng·h/mL; t1/2 ([2]; intravenous injection, 5 mg/kg): 2.8 h; AUC0→t ([2]; oral administration, 10 mg/kg): 2750 ng·h/mL; Cmax ([2]; oral administration, 10 mg/kg): 2400 ng/mL; bioavailability ([2]; oral administration, 10 mg/kg): 43.3%; t1/2 ([2]; oral administration, 10 mg/kg): 2.0 h

From patent publication US10407430B2, “Janus kinase 1 selective inhibitor and pharmaceutical use thereof” (YANG JI CHEMICAL CO., LTD., priority 2015, dated 2019)
